Experimental data from EP0400480A1, “A method for enhancing the cytotoxicity of anthracyclines through photoactivation” (CONSIGLIO NAZIONALE DELLE RICERCHE, priority 1989, dated 1990).

Columns and labels:
FRT L5 cells [1] = experiment: Growth curve (count of vital cells) of FRT L5 cells after 2 hr incubation with or without 595 nm irradiation (Example 1); format: cell-based, Fisher Rat; conditions: 50 ng/ml, irradiation 595 nm 245 J/cm², curve (f) compared with non-irradiated curve (b)
Description: A culture of Fisher Rat Thyroid cells classified as FRT L5 was performed routinely in Petri dishes in a Ham F-12 medium modified by Coon (K.C. Biological Co.) with addition of 5% calf serum (Grand Island Biological Co.) by incubation at 37°C in an atmosphere with 5% CO₂.
For determining the growth curve a suitable number of the colture Petri dishes was trypsinized and the cells were re-suspended in growth medium in such a way as to have a cell concentration of appoximately 10⁶/ml. Suspension volumes containing a number of cells of the order of 10⁵ were poured into dishes of 60 mm diameter and covered with 3 ml culture medium, maintaining the cell suspension under stirring in order to have a uniform cell distribution in the various dishes.
The dishes were put in an incubator for 24 hrs and then incubated for 2 hrs with fresh reaction medium containing […] (5-ID).
5-iminodaunomicin was prepared in a 1.78.10⁻⁵M solution in dejonized bidistilled water and was added to the various dishes in such amounts as to have concentrations of 0,50, 200, 400 and 1000 ng/ml. Incubation of these dishes was performed in the dark while at the same time a dish prepared in the same way and having a 5-iminodaunomicin concentration of 50 ng/ml was incubated under red light radiation of 595 nm wave length. […]

FRT L5 cells [2] = experiment: Cell survival of FRT L5 cells relative to non-irradiated culture after incubation with 595 nm irradiation (Examples 2 and 3); format: cell-based, Fisher Rat; conditions: 1000 ng/ml
Description: Following the method of Example 1, FRT L5 cells were resuspended, distributed in dishes and incubated for 72 hrs. At this point 5-ID was introduced in the dishes in an amount such as to have a concentration in the medium of 1000 ng/ml and the dishes were incubated for 2 hrs. During this period the various dishes were irradiated with red light of 595 nm with constant radiation density on the dish of an average of 34 mW/cm² for times of from 15 to 120 minutes.
Each irradiation period was selected so that its termination coincided with the incubation end.
The average dose of light administered on the dish in 120 minutes was 245 J/cm².
2, in which the percentage of cell survival refferred to a non-irradiated culture is represented as a function of the light dose in J/cm².
Example 2 was repeated, except that each dish was irradiated for only 15 minute during the 2 hr incubation with 5-ID.
Said 15 minute irradiations were started with increasing delays with respect to the start of the incubation, and precisely with delays of 0,15, 30, 45, 60, 75, 90 and 105 minutes.
The results are reported in figure 3, in which the percentage cell survival, with respect to non- irradiated cultures, is reported as a function of the delay from the irradiation start with respect to the start of the incubation with 5-ID.

COc1cccc2c1C(=N)c1c(O)c3c(c(O)c1C2=O)C[C@@](O)(C(C)=O)C[C@@H]3O[C@H]1C[C@H](N)[C@H](O)[C@H](C)O1 [5-ID, 5-iminodaunomicin]
lowering the number of vital cell (FRT L5 cells [1]): one order of magnitude | lethal effect (cell survival referred to a non-irradiated culture) (FRT L5 cells [2]; 2 hr incubation, irradiation 595 nm, 34 mW/cm², short time (ca. 30 minutes)): high lethal effect | effect of incubation without irradiation (FRT L5 cells [2]; without irradiation, short time, see curve (e) of figure 1): does not have a measurable effect
